Experimental data as given in patent publication US20260297070A1, “CYCLIC [COMPOUND LEFT OUT] WRN INHIBITORS” (Nimbus Wadjet, Inc., priority 2023, published 2026).

Each compound was assayed against T1, human Werner helicase (WRN-BV08, Uniprot Q14191, amino acids 517-1235 with L1074F point mutation) (Homo sapiens, UniProt Q14191, L1074F) (assay: WRN (BV08) ADP-Glo Assay). Details: 0.15 nM WRN, 5 μM ATP, 0.1 nM DNA duplex, 15 min preincubation, 60 min at 25° C., pH 7.5, 1% DMSO; read-out: ADP-Glo_hWRN_IC50.
T1 construct: Uniprot Q14191, amino acids 517-1235 with L1074F point mutation; TEV-cleavable 8×His (C, cleaved yes); made in house; host or cells: Sf9 insect cells (baculovirus)
Assay type: biochemical
In short: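 ADP produced by WRN helicase fragment 517-1235 (L1074F, baculovirus/Sf9, untagged) read by ADP-Glo luminescence after 60 min at 25 °C with 5 μM ATP and 0.1 nM duplex DNA, following 15 min compound preincubation. Final enzyme 0.15 nM in Bicine pH 7.5 buffer, 1% DMSO; 20 μM NSC-617145 defined full inhibition.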

T1 sequence (Q14191 with tags, fused parts or gaps L1074F limits assumed): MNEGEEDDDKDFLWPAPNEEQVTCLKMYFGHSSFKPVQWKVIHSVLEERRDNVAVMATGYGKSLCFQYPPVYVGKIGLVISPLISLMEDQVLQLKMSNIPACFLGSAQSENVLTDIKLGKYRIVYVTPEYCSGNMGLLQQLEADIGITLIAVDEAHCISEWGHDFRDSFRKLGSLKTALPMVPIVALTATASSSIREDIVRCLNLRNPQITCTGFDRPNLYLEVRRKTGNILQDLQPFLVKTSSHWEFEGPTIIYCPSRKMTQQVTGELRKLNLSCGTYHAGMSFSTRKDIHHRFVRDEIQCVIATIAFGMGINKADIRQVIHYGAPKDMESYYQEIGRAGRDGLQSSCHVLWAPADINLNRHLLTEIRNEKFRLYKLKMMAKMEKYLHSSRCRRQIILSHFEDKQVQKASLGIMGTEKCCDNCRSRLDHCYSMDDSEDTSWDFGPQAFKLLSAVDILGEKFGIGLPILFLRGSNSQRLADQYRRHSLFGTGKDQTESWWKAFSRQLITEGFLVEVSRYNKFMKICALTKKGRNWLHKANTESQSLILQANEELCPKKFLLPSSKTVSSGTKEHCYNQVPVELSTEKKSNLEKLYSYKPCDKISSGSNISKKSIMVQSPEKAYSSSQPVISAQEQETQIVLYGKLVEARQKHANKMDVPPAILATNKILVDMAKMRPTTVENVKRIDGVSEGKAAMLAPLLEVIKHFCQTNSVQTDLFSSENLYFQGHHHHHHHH

SMILES	IC50 [µM]
Cn1cc(CCC(=O)N(Cc2ccncc2)C2C=CS(=O)(=O)C2)c2ccc(Br)cc21 (centres unmarked) [I-565, 3-(6-bromo-1-methyl-1H-indol-3-yl)-N-(1,1-dioxo-2,3-dihydro-1lambda6-thiophen-3-yl)-N-[(pyridin-4-yl)methyl]propanamide]	> 50
O=C(Cn1cc2ccc(C(F)F)cc2n1)N(Cc1ccncc1)C1C=CS(=O)(=O)C1 (centres unmarked) [I-592, 2-[6-(difluoromethyl)-2H-indazol-2-yl]-N-(1,1-dioxo-2,3-dihydro-1lambda6-thiophen-3-yl)-N-[(pyridin-4-yl)methyl]acetamide]	10 to 50
O=C(Cc1ccc(-n2cccc2)cc1)N(Cc1ccccn1)C1C=CS(=O)(=O)C1 (centres unmarked) [I-467, N-(1,1-dioxo-2,3-dihydro-1lambda6-thiophen-3-yl)-N-[(pyridin-2-yl)methyl]-2-[4-(1H-pyrrol-1-yl)phenyl]acetamide]	> 50
COCC(C(=O)N(Cc1ccnc(C(C)(C)O)c1)[C@@H]1C=CS(=O)(=O)C1)c1ccc(S(F)(F)(F)(F)F)cc1 (single isomer, unassigned) [I-675]	10 to 50
COc1cc(CN(C(=O)Cc2ccc(-c3csc(C)n3)cc2F)C2C=CS(=O)(=O)C2)ccn1 (centres unmarked) [I-573, N-(1,1-dioxo-2,3-dihydro-1lambda6-thiophen-3-yl)-2-[2-fluoro-4-(2-methyl-1,3-thiazol-4-yl)phenyl]-N-[(2-methoxypyridin-4-yl)methyl]acetamide]	> 50
CC1=CC(N(Cc2ccccc2)C(=O)Cc2ccc(-n3cccc3)cc2)CS1(=O)=O (centres unmarked) [I-566, 2-(4-(1H-pyrrol-1-yl)phenyl)-N-benzyl-N-(5-methyl-1,1-dioxido-2,3-dihydrothiophen-3-yl)acetamide]	> 50
O=C(Cc1ccc(-c2ccccc2)cn1)N(Cc1ccccc1)C1C=CS(=O)(=O)C1 (centres unmarked) [I-341, N-benzyl-N-(1,1-dioxo-2,3-dihydro-1lambda6-thiophen-3-yl)-2-(5-phenylpyridin-2-yl)acetamide]	10 to 50
CCC(C(=O)N(Cc1ccncc1)C1C=CS(=O)(=O)C1)c1ccc(-n2cccc2)cc1 (centres unmarked) [I-484, N-(1,1-dioxo-2,3-dihydro-1lambda6-thiophen-3-yl)-N-[(pyridin-4-yl)methyl]-2-[4-(1H-pyrrol-1-yl)phenyl]butanamide]	> 50
O=C(Cc1ccc(-n2cccn2)cc1)N(Cc1ccncc1)C1C=CS(=O)(=O)C1 (centres unmarked) [I-419, N-(1,1-dioxo-2,3-dihydro-1lambda6-thiophen-3-yl)-2-[4-(1H-pyrazol-1-yl)phenyl]-N-[(pyridin-4-yl)methyl]acetamide]	> 50
O=C(Cc1ccc(-n2cccc2)cc1)N(Cc1cc(F)cc(F)c1)C1C=CS(=O)(=O)C1 (centres unmarked) [I-522, N-[(3,5-difluorophenyl)methyl]-N-(1,1-dioxo-2,3-dihydro-1lambda6-thiophen-3-yl)-2-[4-(1H-pyrrol-1-yl)phenyl]acetamide]	> 50
O=C(Cc1ccc(-c2ccc(F)cc2)cc1CO)N(Cc1ccncc1)C1C=CS(=O)(=O)C1 (centres unmarked) [I-350, N-(1,1-dioxo-2,3-dihydro-1lambda6-thiophen-3-yl)-2-[4′-fluoro-3-(hydroxymethyl)-[1,1′-biphenyl]-4-yl]-N-[(pyridin-4-yl)methyl]acetamide]	10 to 50
O=C([C@H]1CC[C@@H](C(F)(F)F)O1)N(Cc1ccncc1)C1C=CS(=O)(=O)C1 (mixture of isomers) [I-714, rac-(2R,5S)-N-(1,1-dioxo-2,3-dihydro-1lambda6-thiophen-3-yl)-N-[(pyridin-4-yl)methyl]-5-(trifluoromethyl)oxolane-2-carboxamide]	> 50
O=C(Cc1ccc(OC(F)(F)F)cc1)N(Cc1ccncc1)C1C=CS(=O)(=O)C1 (centres unmarked) [I-252, N-(1,1-dioxo-2,3-dihydro-1lambda6-thiophen-3-yl)-N-[(pyridin-4-yl)methyl]-2-[4-(trifluoromethoxy)phenyl]acetamide]	5 to 10
O=C(Cc1ccc(C(F)(F)F)cc1Br)N(Cc1ccncc1)C1C=CS(=O)(=O)C1 (centres unmarked) [I-293, 2-[2-bromo-4-(trifluoromethyl)phenyl]-N-(1,1-dioxo-2,3-dihydro-1lambda6-thiophen-3-yl)-N-[(pyridin-4-yl)methyl]acetamide]	10 to 50
O=C(Cn1c(=O)n(C2=CCCCC2)c2ccccc21)N(Cc1ccncc1)C1C=CS(=O)(=O)C1 (centres unmarked) [I-680, 2-[3-(cyclohex-1-en-1-yl)-2-oxo-2,3-dihydro-1H-1,3-benzodiazol-1-yl]-N-(1,1-dioxo-2,3-dihydro-1lambda6-thiophen-3-yl)-N-[(pyridin-4-yl)methyl]acetamide]	> 50

Results, then the compound that gave them:

IC50 [µM]	SMILES
< 0.5	O=C(Cn1cc(-c2ccc(F)c(F)c2)cn1)N(Cc1nc([C@H]2C[C@H]2F)cs1)C1C=CS(=O)(=O)C1 (stereo partly drawn) [I-724, 2-[4-(3,4-difluorophenyl)-1H-pyrazol-1-yl]-N-(1,1-dioxo-2,3-dihydro-1lambda6-thiophen-3-yl)-N-({4-[(1R,2R)-2-fluorocyclopropyl]-1,3-thiazol-2-yl}methyl)acetamide]
< 0.5	CC(C)(O)c1cc(CN(C(=O)Cc2ccc(-c3cccc(Cl)c3)cc2F)C2C=CS(=O)(=O)C2)ccn1 (centres unmarked) [I-70, 2-{3′-chloro-3-fluoro-[1,1′-biphenyl]-4-yl}-N-(1,1-dioxo-2,3-dihydro-1lambda6-thiophen-3-yl)-N-{[2-(2-hydroxypropan-2-yl)pyridin-4-yl]methyl}acetamide]
< 0.5	CC(C)(O)c1cc(CN(C(=O)Cc2ccc(S(F)(F)(F)(F)F)cc2)[C@@H]2C=CS(=O)(=O)C2)ccn1 [I-16, (R)—N-(1,1-dioxido-2,3-dihydrothiophen-3-yl)-N-((2-(2-hydroxypropan-2-yl)pyridin-4-yl)methyl)-2-(4-(pentafluoro-λ^6-sulfaneyl)phenyl)acetamide]
0.5 to 5	COc1cc(CN(C(=O)Cc2ccc(-c3ccc(F)cc3)cc2)C2C=CS(=O)(=O)C2)ccn1 (centres unmarked) [I-158, N-(1,1-dioxo-2,3-dihydro-1lambda6-thiophen-3-yl)-2-{4′-fluoro-[1,1′-biphenyl]-4-yl}-N-[(2-methoxypyridin-4-yl)methyl]acetamide]
0.5 to 5	O=C(Cc1ncc(-c2ccc(F)cc2)cc1F)N(Cc1ccncc1)C1C=CS(=O)(=O)C1 (centres unmarked) [I-205, N-(1,1-dioxo-2,3-dihydro-1lambda6-thiophen-3-yl)-2-[3-fluoro-5-(4-fluorophenyl)pyridin-2-yl]-N-[(pyridin-4-yl)methyl]acetamide]
0.5 to 5	O=C(Cc1ccc(-n2cccc2)cc1)N(Cc1nc2c(s1)CCCC2)C1C=CS(=O)(=O)C1 (centres unmarked) [I-154, N-(1,1-dioxo-2,3-dihydro-1lambda6-thiophen-3-yl)-2-[4-(1H-pyrrol-1-yl)phenyl]-N-[(4,5,6,7-tetrahydro-1,3-benzothiazol-2-yl)methyl]acetamide]
< 0.5	COC(C(=O)N(Cc1ccncc1)C1C=CS(=O)(=O)C1)c1ccc(-c2ccc(F)cc2)cc1 (single isomer, unassigned) [I-72, (2R*)-N-[(3R**)-1,1-dioxo-2,3-dihydro-1lambda6-thiophen-3-yl]-2-{4′-fluoro-[1,1′-biphenyl]-4-yl}-2-methoxy-N-[(pyridin-4-yl)methyl]acetamide]
< 0.5	Cc1cccn1-c1ccc(CC(=O)N(Cc2ccnc(OCC(F)(F)F)c2)C2C=CS(=O)(=O)C2)c(F)c1 (centres unmarked) [I-67, N-(1,1-dioxo-2,3-dihydro-1lambda6-thiophen-3-yl)-2-[2-fluoro-4-(2-methyl-1H-pyrrol-1-yl)phenyl]-N-{[2-(2,2,2-trifluoroethoxy)pyridin-4-yl]methyl}acetamide]
0.5 to 5	O=C(Cc1ccc(-n2cccc2)cc1)N(Cc1nc2c(s1)COCC2)C1C=CS(=O)(=O)C1 (centres unmarked) [I-178, N-(1,1-dioxo-2,3-dihydro-1lambda6-thiophen-3-yl)-N-({4H,6H,7H-pyrano[4,3-d][1,3]thiazol-2-yl}methyl)-2-[4-(1H-pyrrol-1-yl)phenyl]acetamide]
< 0.5	CC(C)(O)c1csc(CN(C(=O)Cn2cc(-c3cc(F)c(F)c(F)c3)cn2)C2C=CS(=O)(=O)C2)n1 (centres unmarked) [I-797, N-(1,1-dioxo-2,3-dihydro-1lambda6-thiophen-3-yl)-N-{[4-(2-hydroxypropan-2-yl)-1,3-thiazol-2-yl]methyl}-2-[4-(3,4,5-trifluorophenyl)-1H-pyrazol-1-yl]acetamide]
< 0.5	CC(C)(O)c1cc(CN(C(=O)C(c2ccc(-c3ccc(F)c(F)c3)cc2F)n2ccnn2)C2C=CS(=O)(=O)C2)ccn1 (single isomer, unassigned) [I-801, (2R*)-N-[(3R**)-1,1-dioxo-2,3-dihydro-1lambda6-thiophen-3-yl]-N-{[2-(2-hydroxypropan-2-yl)pyridin-4-yl]methyl}-2-(1H-1,2,3-triazol-1-yl)-2-{3,3′,4′-trifluoro-[1,1′-biphenyl]-4-yl}acetamide]
0.5 to 5	COc1cc(CN(C(=O)Cc2ccc(S(F)(F)(F)(F)F)cc2)C2C=CS(=O)(=O)C2)cc(OC)n1 (centres unmarked) [I-684, N-[(2,6-dimethoxypyridin-4-yl)methyl]-N-(1,1-dioxo-2,3-dihydro-1lambda6-thiophen-3-yl)-2-[4-(pentafluoro-lambda6-sulfanyl)phenyl]acetamide]
0.5 to 5	O=C(c1ccc(CN(C(=O)Cc2ccc(-c3ccc(F)c(F)c3)cc2F)C2C=CS(=O)(=O)C2)cc1)N1CCOCC1 (centres unmarked) [I-780, N-(1,1-dioxo-2,3-dihydro-1lambda6-thiophen-3-yl)-N-{[4-(morpholine-4-carbonyl)phenyl]methyl}-2-{3,3′,4′-trifluoro-[1,1′-biphenyl]-4-yl}acetamide]
< 0.5	O=C(Cn1cc(-c2cc(F)c(F)c(F)c2)cn1)N(Cc1ccnc(Oc2ccncc2)c1)C1C=CS(=O)(=O)C1 (centres unmarked) [I-772, N-(1,1-dioxo-2,3-dihydro-1lambda6-thiophen-3-yl)-N-{[2-(pyridin-4-yloxy)pyridin-4-yl]methyl}-2-[4-(3,4,5-trifluorophenyl)-1H-pyrazol-1-yl]acetamide]
